Measured values as given in publication PMC11211886 (Frontiers in Pharmacology, 2024).

Columns and labels:
[1] = molecular target: T1, OATP1B3 (Homo sapiens, UniProt Q9NPD5); assay: OATP1B3 inhibition, β-estradiol 17-(β-D-glucuronide) uptake in transfected HEK293 cells
T1 sequence (Q9NPD5 1-702): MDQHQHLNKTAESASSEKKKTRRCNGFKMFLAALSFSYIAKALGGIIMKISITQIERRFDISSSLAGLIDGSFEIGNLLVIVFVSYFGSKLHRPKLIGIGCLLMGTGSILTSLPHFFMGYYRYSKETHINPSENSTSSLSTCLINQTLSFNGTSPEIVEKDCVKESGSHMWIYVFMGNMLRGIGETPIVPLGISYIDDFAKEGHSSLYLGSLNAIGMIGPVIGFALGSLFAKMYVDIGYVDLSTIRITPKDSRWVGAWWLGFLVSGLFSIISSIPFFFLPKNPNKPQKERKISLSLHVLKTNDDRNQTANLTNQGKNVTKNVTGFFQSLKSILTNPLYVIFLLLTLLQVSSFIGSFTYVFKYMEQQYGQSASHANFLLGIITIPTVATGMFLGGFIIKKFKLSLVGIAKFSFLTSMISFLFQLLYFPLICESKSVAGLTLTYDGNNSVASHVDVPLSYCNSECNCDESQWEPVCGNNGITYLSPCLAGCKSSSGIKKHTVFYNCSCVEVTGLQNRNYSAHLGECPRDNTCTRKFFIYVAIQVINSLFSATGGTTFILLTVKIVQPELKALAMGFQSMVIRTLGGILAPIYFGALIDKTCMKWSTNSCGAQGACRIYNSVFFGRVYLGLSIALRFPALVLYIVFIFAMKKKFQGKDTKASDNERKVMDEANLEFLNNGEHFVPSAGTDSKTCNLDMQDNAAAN
Experimental: (§1) The pre-incubation solutions were removed, and incubation solutions containing the inhibitors and probe substrates (or transport buffer containing an equal volume of vehicle control and probe substrates) were added and incubated at 37°C for 2 min (5 min for OATP1B3). The probe substrate for OAT1 was 4-aminohippuric acid (10 μM), for OAT3 was estrone 3-sulfate (10 μM), for OCT2 was metformin (100 μM), for OATP1B1 was β-estradiol 17-(β-D-glucuronide) (5 μM), for OATP1B3 was β-estradiol 17-(β-D-glucuronide) (10 μM), and for MATE1 and MATE2-K was tetraethylammonium (10 μM). After incubation, cells were washed three times with ice-cold transport buffer (25 mM HEPES, pH 7.4, pH 8.0 for overexpressing MATE1 and MATE2-K HEK293 cells) and lysed in distilled water. The concentrations of probe substrates were determined by LC-MS/MS, and a BCA Kit (Solarbio ®Life Sciences, Beijing, China) was used to determine the protein content in the cell lysate.
(§2) where C is the concentration of the drug in the cell lysate (nM), P is the protein concentration of the cell lysate (mg/mL), and T is the incubation time (minute). Uptake ratetest compound is the uptake rate of the substrate in the presence of the test compound. Uptake ratevehicle control is the uptake rate of the substrate in the presence of the vehicle control. Uptake ratepassive is the uptake rate of the substrate in the presence of the positive inhibitor at the top test concentration.

[2] = molecular target: T2, OAT1 (Homo sapiens, UniProt Q4U2R8); assay: in vitro
T2 sequence (Q4U2R8 1-563): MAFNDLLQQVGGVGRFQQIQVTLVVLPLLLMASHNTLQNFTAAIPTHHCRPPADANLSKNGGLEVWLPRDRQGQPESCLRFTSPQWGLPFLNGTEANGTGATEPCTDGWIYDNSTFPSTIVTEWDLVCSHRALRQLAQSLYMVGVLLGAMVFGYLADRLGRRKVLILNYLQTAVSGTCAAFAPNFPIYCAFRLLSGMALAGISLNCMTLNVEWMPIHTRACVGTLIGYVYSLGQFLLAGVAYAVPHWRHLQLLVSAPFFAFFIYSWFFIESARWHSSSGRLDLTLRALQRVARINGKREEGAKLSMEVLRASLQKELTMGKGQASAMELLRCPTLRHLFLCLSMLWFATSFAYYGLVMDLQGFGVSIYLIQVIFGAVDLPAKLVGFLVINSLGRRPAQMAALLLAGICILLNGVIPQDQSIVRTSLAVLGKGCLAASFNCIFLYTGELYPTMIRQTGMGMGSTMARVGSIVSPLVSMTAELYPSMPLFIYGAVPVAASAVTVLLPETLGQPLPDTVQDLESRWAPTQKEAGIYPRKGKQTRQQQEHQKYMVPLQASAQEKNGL
Experimental: as §1, §2

For `C[C@H](Nc1ncnc(N)c1C#N)c1cc2ncc(Cl)n2nc1-c1ccccc1` [Amdizalisib], the IC50 [1] was 5.03 µM, the Percentage transported ([1]; human, 5 min, 0.3 μM, pH 7.4) was 94.5% and the Uptake rate ([1]; human, 5 min, 0.3 μM, pH 7.4) was 62.4±5.58 pmol/mg protein/min. The Percentage transported ([1]; human, 5 min, 1 μM, pH 7.4) was 89.2%, the Uptake rate ([1]; human, 5 min, 1 μM, pH 7.4) was 59.1±6.36 pmol/mg protein/min and the Percentage transported ([1]; human, 5 min, 3 μM, pH 7.4) was 68.1%. The Uptake rate ([1]; human, 5 min, 3 μM, pH 7.4) was 46.2±10.1 pmol/mg protein/min, the Percentage transported ([1]; human, 5 min, 10 μM, pH 7.4) was 29.3% and the Uptake rate ([1]; human, 5 min, 10 μM, pH 7.4) was 22.4±1.00 pmol/mg protein/min. It also gave a Percentage transported ([1]; human, 5 min, 30 μM, pH 7.4) of 3.82%, an Uptake rate ([1]; human, 5 min, 30 μM, pH 7.4) of 6.76±0.372 pmol/mg protein/min and a Percentage transported ([1]; human, 5 min, 100 μM, pH 7.4) of -4.02%. For the same compound, the Uptake rate ([1]; human, 5 min, 100 μM, pH 7.4) was 1.99±0.315 pmol/mg protein/min, the “calculated R value (OATP1B3)” value ([1]; human, 5 min, pH 7.4) was 5.1 and the inhibition at 5 min, 0.3 µM ([1]; human, pH 7.4) was 5.47%. The inhibition at 5 min, 1 µM ([1]; human, pH 7.4) was 10.8%, the inhibition at 5 min, 3 µM ([1]; human, pH 7.4) was 31.9% and the inhibition at 5 min, 10 µM ([1]; human, pH 7.4) was 70.7%. The inhibition at 5 min, 30 µM ([1]; human, pH 7.4) was 96.2%, the inhibition at 5 min, 100 µM ([1]; human, pH 7.4) was 104% and the IC50 [2] was 4.14 µM. For the same compound, the Percentage transported ([2]; OAT1, compound 0.3 μM) was 96.4%, the Uptake rate ([2]; OAT1, compound 0.3 μM) was 489±79.6 pmol/mg protein/min and the Percentage transported ([2]; OAT1, compound 1 μM) was 91.6%. For the same compound, the Uptake rate ([2]; OAT1, compound 1 μM) was 467±34.8 pmol/mg protein/min, the Percentage transported ([2]; OAT1, compound 3 μM) was 50.9% and the Uptake rate ([2]; OAT1, compound 3 μM) was 278±37.1 pmol/mg protein/min. For the same compound, the Percentage transported ([2]; OAT1, compound 10 μM) was 33.3%, the Uptake rate ([2]; OAT1, compound 10 μM) was 196±6.18 pmol/mg protein/min and the Percentage transported ([2]; OAT1, compound 30 μM) was 7.47%. The Uptake rate ([2]; OAT1, compound 30 μM) was 76.5±17.7 pmol/mg protein/min, the Percentage transported ([2]; OAT1, compound 100 μM) was -7.21% and the Uptake rate ([2]; OAT1, compound 100 μM) was 8.38±1.24 pmol/mg protein/min. It also gave an inhibition at 2 min, 0.3 µM ([2]; human, pH 7.4) of 3.65%, an inhibition at 2 min, 1 µM ([2]; human, pH 7.4) of 8.44% and an inhibition at 2 min, 3 µM ([2]; human, pH 7.4) of 49.1%. The inhibition at 2 min, 10 µM ([2]; human, pH 7.4) was 66.7%, the inhibition at 2 min, 30 µM ([2]; human, pH 7.4) was 92.5% and the inhibition at 2 min, 100 µM ([2]; human, pH 7.4) was 107%. For the same compound, the “calculated R value (OAT1)” value ([2]; renal OATs) was less than 1.1.
